The subject of experiment [1] is K103N/Y181C (HIV-1 double mutant strain). In words: EC50 assay, K103N/Y181C strain. In kind it is cell-based. The text has this:
(§1) Reverse TranscriptASE (RT) Assays
(§2) The assays are as described in WO 01/96338A1, the contents of which are hereby incorporated herein. The results are listed in Tables 8 as IC50(nM) and EC50(nM).

In experiment [2] the test system is WT RT (HIV-1 wild type strain). The experiment can be described thus: EC50 assay, WT RT strain. In kind it is cell-based.
Excerpt: as §1, §2

Experiment [3] addresses T1, V106A mutant RT (HIV-1 RT) (Human immunodeficiency virus type 1 group M subtype B, UniProt P03366, V705A).
T1 construct: mutations that occur in the reverse transcriptase segment of the pol gene
In words: biochemical.
Excerpt: (§3) Based upon testing of these compounds, as described below, it is known that they inhibit the RNA-dependent DNA polymerase activity of HIV-1 RT. […] Utilising the Reverse Transcriptase (RT) Assay described below, compounds can be tested for their ability to inhibit the RNA-dependent DNA polymerase activity of HIV-1 RT. Certain specific compounds described in the Examples which appear below, were so tested. The results of this testing appear in Table 4 as IC50 (nM) and Table 5 as EC50 (nM).
as §1, §2

For experiment [4], the target named is T2, WT RT (HIV-1 RT) (Human immunodeficiency virus type 1 group M subtype B, UniProt P03366).
T2 construct: mutations that occur in the reverse transcriptase segment of the pol gene
In words: biochemical.
Excerpt: as §3, §1, §2

For experiment [5], the target named is T3, Y188L mutant RT (HIV-1 RT) (Human immunodeficiency virus type 1 group M subtype B, UniProt P03366, Y787L).
T3 construct: mutations that occur in the reverse transcriptase segment of the pol gene
In words: biochemical.
Excerpt: as §3, §1, §2

For experiment [6], the target named is T4, K103N/Y181C double mutant RT (HIV-1 RT) (Human immunodeficiency virus type 1 group M subtype B, UniProt P03366, K702N/Y780C).
T4 construct: mutations that occur in the reverse transcriptase segment of the pol gene
In words: biochemical.
Excerpt: as §3, §1, §2

Setting [7] is: Human immunodeficiency virus 1, read-out: EC50 K103N/Y181C (nM), K103N/Y181C double mutant.
[8] abbreviates: Human immunodeficiency virus 1, read-out: EC50 WT RT (nM).
[9] abbreviates: K103N/Y181C double mutant, read-out: EC50 K103N/Y181C.
Setting [10] is: wild type, read-out: EC50 WT RT.
[11] abbreviates: wild type RT, read-out: IC50 WT RT.
Setting [12] is: K103N/Y181C double mutant RT, read-out: IC50 K103N/Y181C.

Data on 22 molecules can be found in patent US6673791B2, “Non-nucleoside reverse transcriptase inhibitors” (Boehringer Ingelheim (Canada) Ltd., priority 2001, dated 2004).

Molecules are shown by their SMILES. Read-outs that look alike come from different tables or passages of the source.

Take `CCN1c2ncc(CCOc3ccc(C(=O)O)c4ccccc34)cc2C(=O)N(C)c2cccnc21` [Entry 1001]: the EC50 in experiment [1] (setting [7]) and in experiment [2] (setting [8]) was under 100 nM throughout.
As for `CCN1c2ncc(CCOc3ccc(C(=O)O)c4ccccc34)cc2C(=O)N(C)c2ccc(Cl)nc21` [Entry 1002], the EC50 in experiment [1] (setting [7]) and in experiment [2] (setting [8]) was under 100 nM in each case. Further, the IC50 in experiment [3] (IC50 V106A (nM)) is 100 to 1000 nM; in experiment [4] it was under 100 nM; in experiment [5] (IC50 Y188L (nM)), 100 to 1000 nM; in experiment [6] it was under 100 nM.
With `CCN1c2ncc(CCOc3ccc(C(=O)O)c4ccccc34)cc2C(=O)N(C)c2ccc(F)nc21` [Entry 1006], the EC50 in experiment [1] (setting [7]) and in experiment [2] (setting [8]) was under 100 nM in each case. The IC50 in experiment [3] (IC50 V106A (nM)) is over 1000 nM; in experiment [4], under 100 nM; in experiment [5] (IC50 Y188L (nM)) it was over 1000 nM; in experiment [6], 100 to 1000 nM.
For the molecule `CCN1c2ncc(CCOc3ccc(C(=O)O)c4ccccc34)cc2C(=O)Nc2c(C)cc(Cl)nc21` [Entry 1007], the EC50 in experiment [1] (setting [7]) and in experiment [2] (setting [8]) was under 100 nM throughout. Besides, the IC50 was 100 to 1000 nM in experiment [3] (IC50 V106A (nM)), under 100 nM in experiment [4], over 1000 nM in experiment [5] (IC50 Y188L (nM)) and 100 to 1000 nM in experiment [6].
Turning to `CCN1c2ncc(CCOc3ccc(CC(=O)O)c4ccccc34)cc2C(=O)N(C)c2cccnc21` [Entry 1008], the EC50 in experiment [1] (setting [9]) and in experiment [2] (setting [10]) was under 100 nM throughout. In addition, the IC50 in experiment [3] (read-out: IC50 V106A) was over 1000 nM; in experiment [4] (setting [11]) it was under 100 nM; in experiment [5] (read-out: IC50 Y188L) it was over 1000 nM; in experiment [6] (setting [12]), 100 to 1000 nM.
Consider `CCN1c2ncc(CCOc3ccc(CC(=O)O)c4ccccc34)cc2C(=O)N(C)c2ccc(F)nc21` [Entry 1009], for which the EC50 in experiment [1] (setting [7]) and in experiment [2] (setting [8]) was under 100 nM each time. Also, the IC50 in experiment [3] (IC50 V106A (nM)) was over 1000 nM; in experiment [4] it was under 100 nM; in experiment [5] (IC50 Y188L (nM)), over 1000 nM; in experiment [6], 100 to 1000 nM.
On to `CCN1c2ncc(CCOc3ccc(CC(=O)O)c4ccccc34)cc2C(=O)N(C)c2ccc(Cl)nc21` [Entry 1010], for which the EC50 in experiment [1] (setting [7]) and in experiment [2] (setting [8]) was under 100 nM throughout. In addition, the IC50 in experiment [3] (IC50 V106A (nM)) is over 1000 nM; in experiment [4] it was under 100 nM; in experiment [5] (IC50 Y188L (nM)), over 1000 nM; in experiment [6] it was 100 to 1000 nM.
On to `CCN1c2ncc(CCOc3ccc(CC(=O)O)c4ccccc34)cc2C(=O)Nc2c(C)cc(Cl)nc21` [Entry 1012], for which the EC50 in experiment [1] (setting [7]) was 100 to 1000 nM; in experiment [2] (setting [8]), under 100 nM. In addition, the IC50 in experiment [3] (IC50 V106A (nM)) was 100 to 1000 nM; in experiment [4], under 100 nM; in experiment [5] (IC50 Y188L (nM)), over 1000 nM; in experiment [6], 100 to 1000 nM.
`CCN1c2ncc(CCOc3ccc(CC(=O)NN)c4ccccc34)cc2C(=O)N(C)c2cccnc21` [Entry 1015]: the EC50 in experiment [1] (setting [7]) and in experiment [2] (setting [8]) was under 100 nM throughout. Besides, the IC50 in experiment [3] (IC50 V106A (nM)) was 100 to 1000 nM; in experiment [4] it was under 100 nM; in experiment [5] (IC50 Y188L (nM)) it was 100 to 1000 nM; in experiment [6], under 100 nM.
As for `CCN1c2ncc(CCOc3ccc(CC(=O)NN)c4ccccc34)cc2C(=O)N(C)c2ccc(Cl)nc21` [Entry 1016], the EC50 in experiment [1] (setting [7]) and in experiment [2] (setting [8]) was under 100 nM in each case. In addition, the IC50 in experiment [3] (IC50 V106A (nM)) was 100 to 1000 nM; in experiment [4], under 100 nM; in experiment [5] (IC50 Y188L (nM)) it was 100 to 1000 nM; in experiment [6] it was under 100 nM.
Turning to `CCN1c2ncc(CCOc3ccc(CC(=O)NS(C)(=O)=O)c4ccccc34)cc2C(=O)N(C)c2cccnc21` [Entry 1019], the EC50 in experiment [1] (setting [9]) was 100 to 1000 nM; in experiment [2] (setting [10]) it was under 100 nM. The IC50 in experiment [3] (read-out: IC50 V106A) is over 1000 nM; in experiment [4] (setting [11]), under 100 nM; in experiment [5] (read-out: IC50 Y188L), over 1000 nM; in experiment [6] (setting [12]), 100 to 1000 nM.
For `CCN1c2ncc(CCOc3ccc(C(C)C(=O)O)c4ccccc34)cc2C(=O)N(C)c2cccnc21` (stereo not drawn) [Entry 1020], the EC50 in experiment [1] (setting [7]) and in experiment [2] (setting [8]) was under 100 nM each time. The IC50 was over 1000 nM in experiment [3] (IC50 V106A (nM)), under 100 nM in experiment [4], over 1000 nM in experiment [5] (IC50 Y188L (nM)) and 100 to 1000 nM in experiment [6].
For the molecule `CCN1c2ncc(CCOc3ccc(CCC(=O)O)c4ccccc34)cc2C(=O)N(C)c2cccnc21` [Entry 1021], the EC50 in experiment [1] (setting [7]) and in experiment [2] (setting [8]) was under 100 nM in each case. Further, the IC50 is over 1000 nM in experiment [3] (IC50 V106A (nM)), under 100 nM in experiment [4], over 1000 nM in experiment [5] (IC50 Y188L (nM)) and 100 to 1000 nM in experiment [6].
In the case of `CCN1c2ncc(CCOc3ccc(CCC(=O)O)c4ccccc34)cc2C(=O)N(C)c2ccc(Cl)nc21` [Entry 1022], the EC50 in experiment [1] (setting [7]) and in experiment [2] (setting [8]) was under 100 nM in each case. Further, the IC50 was 100 to 1000 nM in experiment [3] (IC50 V106A (nM)), under 100 nM in experiment [4], over 1000 nM in experiment [5] (IC50 Y188L (nM)) and 100 to 1000 nM in experiment [6].
For the molecule `CCN1c2ncc(CCOc3ccc(CCC(=O)O)c4ccccc34)cc2C(=O)N(C)c2ccc(F)nc21` [Entry 1023], the EC50 in experiment [1] (setting [7]) and in experiment [2] (setting [8]) was under 100 nM throughout. Besides, the IC50 in experiment [3] (IC50 V106A (nM)) was over 1000 nM; in experiment [4], under 100 nM; in experiment [5] (IC50 Y188L (nM)), over 1000 nM; in experiment [6], 100 to 1000 nM.
Turning to `CCN1c2ncc(CCOc3ccc(CCC(=O)O)c4ccccc34)cc2C(=O)Nc2c(C)cc(Cl)nc21` [Entry 1025], the EC50 was 100 to 1000 nM in experiment [1] (setting [7]) and under 100 nM in experiment [2] (setting [8]). Also, the IC50 in experiment [3] (IC50 V106A (nM)) is 100 to 1000 nM; in experiment [4], under 100 nM; in experiment [5] (IC50 Y188L (nM)), over 1000 nM; in experiment [6], 100 to 1000 nM.
Consider `CCN1c2ncc(CCOc3ccc(/C=C/C(=O)O)c4ccccc34)cc2C(=O)N(C)c2cccnc21` [Entry 1028], for which the EC50 in experiment [1] (setting [7]) and in experiment [2] (setting [8]) was under 100 nM throughout. Also, the IC50 in experiment [3] (IC50 V106A (nM)) is over 1000 nM; in experiment [4], under 100 nM; in experiment [5] (IC50 Y188L (nM)) it was 100 to 1000 nM; in experiment [6], 100 to 1000 nM.
As for `CCN1c2ncc(CCOc3ccc(/C=C/C(=O)O)c4ccccc34)cc2C(=O)N(C)c2ccc(Cl)nc21` [Entry 1029], the EC50 in experiment [1] (setting [7]) and in experiment [2] (setting [8]) was under 100 nM throughout. In addition, the IC50 in experiment [3] (IC50 V106A (nM)) is 100 to 1000 nM; in experiment [4], under 100 nM; in experiment [5] (IC50 Y188L (nM)), 100 to 1000 nM; in experiment [6] it was 100 to 1000 nM.
Take `CCN1c2ncc(CCOc3ccc(/C=C/C(=O)O)c4ccccc34)cc2C(=O)Nc2c(C)cc(Cl)nc21` [Entry 1030]: the EC50 in experiment [1] (setting [7]) and in experiment [2] (setting [8]) was under 100 nM throughout. The IC50 was under 100 nM in experiment [3] (IC50 V106A (nM)), under 100 nM in experiment [4], over 1000 nM in experiment [5] (IC50 Y188L (nM)) and 100 to 1000 nM in experiment [6].
Regarding `CCN1c2ncc(CCOc3ccc(/C=C/C(=O)O)c4ccccc34)cc2C(=O)Nc2c(C)ccnc21` [Entry 1031], the EC50 in experiment [1] (setting [7]) and in experiment [2] (setting [8]) was under 100 nM in each case. For the same molecule, the IC50 in experiment [3] (IC50 V106A (nM)) is 100 to 1000 nM; in experiment [4] it was under 100 nM; in experiment [5] (IC50 Y188L (nM)) it was over 1000 nM; in experiment [6], 100 to 1000 nM.
For the molecule `CCN1c2ncc(CCOc3ccc(NS(C)(=O)=O)c4ccccc34)cc2C(=O)N(C)c2cccnc21` [Entry 2003], the EC50 in experiment [1] (setting [7]) is under 100 nM. In addition, the IC50 in experiment [3] (IC50 V106A (nM)) is over 1000 nM; in experiment [4], under 100 nM; in experiment [5] (IC50 Y188L (nM)) it was over 1000 nM; in experiment [6] it was 100 to 1000 nM.
With `CCN1c2ncc(CCOc3ccc(CCC(=O)O)c4ccccc34)cc2C(=O)N(C)c2cccnc21` [Entry 2011], the EC50 in experiment [1] (setting [9]) is 100 to 1000 nM; in experiment [2] (setting [10]), under 100 nM. The IC50 in experiment [3] (read-out: IC50 V106A) is over 1000 nM; in experiment [5] (read-out: IC50 Y188L) it was over 1000 nM; in experiment [6] (setting [12]) it was 100 to 1000 nM.
